Literature values, collected in PubChem BioAssay AID1259409 (Chemical Carcinogenesis Research Information System (CCRIS), 2018).

System: rodent chemically induced tumor inhibition, incidence and multiplicity
Experiment: CCRIS tumor inhibitor studies
Conditions: for tumour outcome (control, treated, inhibition, significance): Species: MOUSE

## COc1c2ccoc2cc2cc(C)oc(=O)c12
Carcinogen: 7,12-DIMETHYLBENZ[A]ANTHRACENE, 57-97-6, Dose [Inhibitor]: 0, 400 NMOL ONCE APPLIED 5 MIN PRIOR TO CARCINOGEN DOSE (STUDY DURATION: 25 WK), Route [Inhibitor]: DERMAL, Strain/Sex: SENCAR, Target Tissue: Type of Lesion: SKIN: PAPILLOMA, Dose [Carcinogen]: 10 NMOL ONCE, Promoter: 12-O-TETRADECANOYLPHORBOL-13-ACETATE, 16561-29-8
  tumour outcome (control, treated, inhibition, significance): 96%, 96%, 0%, not significant
Carcinogen: BENZO[A]PYRENE, 50-32-8, Dose [Inhibitor]: 0, 400 NMOL ONCE APPLIED 5 MIN PRIOR TO CARCINOGEN DOSE (STUDY DURATION: 25 WK), Route [Inhibitor]: DERMAL, Strain/Sex: SENCAR, Target Tissue: Type of Lesion: SKIN: PAPILLOMA, Dose [Carcinogen]: 200 NMOL ONCE, Promoter: 12-O-TETRADECANOYLPHORBOL-13-ACETATE, 16561-29-8
  tumour outcome (control, treated, inhibition, significance): 91%, 91%, 0%, not significant

## O=c1cc(-c2ccc(O)cc2)oc2cc(O)cc(O)c12
Carcinogen: 7,12-DIMETHYLBENZ[A]ANTHRACENE, 57-97-6, Dose [Inhibitor]: 0, 5 UMOL IN 0.2 ML ACETONE/DMSO (9:1) 2/WK FOR 20 WK APPLIED 30 MIN PRIOR TO EACH PROMOTER DOSE (STUDY DURATION: 30 WK), Route [Inhibitor]: DERMAL, Strain/Sex: SENCAR/FEMALE, Target Tissue: Type of Lesion: SKIN: PAPILLOMA, Dose [Carcinogen]: 10 NMOL IN 0.2 ML ACETONE ONCE, Promoter: 12-O-TETRADECANOYLPHORBOL-13-ACETATE, 16561-29-8
  tumour outcome (control, treated, inhibition, significance): 92%, 87%, 5%, not significant
Carcinogen: UV-B IRRADIATION, Dose [Inhibitor]: 0, 5 UMOL IN 0.2 ML DMSO:ACETONE (1:9) 2.5-3 HR PRIOR TO EACH UV-B EXPOSURE (STUDY DURATION: 55 WK), Route [Inhibitor]: DERMAL, Strain/Sex: SKH-1/FEMALE, Target Tissue: Type of Lesion: SKIN: SQUAMOUS CELL CARCINOMA, Dose [Carcinogen]: 745 MJ/CM2 5 D/WK FOR 11 WK, Promoter: NONE USED
  tumour outcome (control, treated, inhibition, significance): 81%, 67%, 17%, not significant
Carcinogen: UV-B IRRADIATION, Dose [Inhibitor]: 0, 10 UMOL IN 0.2 ML DMSO:ACETONE (1:9) 2.5-3 HR PRIOR TO EACH UV-B EXPOSURE (STUDY DURATION: 55 WK), Route [Inhibitor]: DERMAL, Strain/Sex: SKH-1/FEMALE, Target Tissue: Type of Lesion: SKIN: SQUAMOUS CELL CARCINOMA, Dose [Carcinogen]: 745 MJ/CM2 5 D/WK FOR 11 WK, Promoter: NONE USED
  tumour outcome (control, treated, inhibition, significance): 81%, 39%, 52%, not calculated

## CCCC(C(=O)OCCN(CC)CC)(c1ccccc1)c1ccccc1
Carcinogen: URETHANE, 51-79-6, Dose [Inhibitor]: 0, 50 MG/KG ONCE AT 24 HR AND 1 HR PRIOR TO CARCINOGEN DOSE THEN ONCE 24 HR AND 48 HR POST CARCINOGEN DOSE (STUDY DURATI, Route [Inhibitor]: INTRAPERITONEAL, Strain/Sex: BALB/MALE, FEMALE, Target Tissue: Type of Lesion: LUNG: TUMOR, Dose [Carcinogen]: 0.5 G/KG IN 0.9% SALINE ONCE, Promoter: NONE USED
  tumour outcome (control, treated, inhibition, significance): 94%, 91%, 3%, not significant

## C=CC1=C(C)C2=NC1=CC1=NC(=CC3=C(C)C4=C(O)[C@H](C(=O)OC)C(=C5NC(=C2)[C@@H](C)[C@@H]5CCC(=O)O)C4=N3)C(CC)=C1C
Carcinogen: 7,12-DIMETHYLBENZ[A]ANTHRACENE, 57-97-6, Dose [Inhibitor]: 0, 16 NMOL IN 0.1 ML ACETONE 2/WK FOR 20 WK APPLIED 40 MIN PRIOR TO EACH PROMOTER DOSE (STUDY DURATION: 21 WK), Route [Inhibitor]: DERMAL, Strain/Sex: ICR/FEMALE, Target Tissue: Type of Lesion: SKIN: TUMOR, Dose [Carcinogen]: 0.19 UMOL IN 0.1 ML ACETONE ONCE, Promoter: 12-O-TETRADECANOYLPHORBOL-13-ACETATE, 16561-29-8
  tumour outcome (control, treated, inhibition, significance): 100%, 72%, 28%, p<0.005
Carcinogen: 7,12-DIMETHYLBENZ[A]ANTHRACENE, 57-97-6, Dose [Inhibitor]: 0, 160 NMOL IN 0.1 ML ACETONE 2/WK FOR 20 WK APPLIED 40 MIN PRIOR TO EACH PROMOTER DOSE (STUDY DURATION: 21 WK), Route [Inhibitor]: DERMAL, Strain/Sex: ICR/FEMALE, Target Tissue: Type of Lesion: SKIN: TUMOR, Dose [Carcinogen]: 0.19 UMOL IN 0.1 ML ACETONE ONCE, Promoter: 12-O-TETRADECANOYLPHORBOL-13-ACETATE, 16561-29-8
  tumour outcome (control, treated, inhibition, significance): 100%, 69%, 31%, p<0.005

## C=CCc1ccc(O)c(OC)c1
Carcinogen: BENZO[A]PYRENE, 50-32-8, Dose [Inhibitor]: 10 MG IN 0.1 ML ACETONE 3/WK ADMINISTERED SIMULTANEOUSLY WITH CARCINOGEN FOR DU RATION OF STUDY (STUDY DURATION: 368 D), Route [Inhibitor]: DERMAL, Strain/Sex: ICR/FEMALE, Target Tissue: Type of Lesion: SKIN: PAPILLOMA, Dose [Carcinogen]: 5 UG IN 0.1 ML ACETONE 3/WK FOR DURATION OF STUDY, Promoter: NONE USED
  tumour outcome (control, treated, inhibition, significance): 14/50 (28%), 4/50 (8%), 71%, not calculated
Carcinogen: BENZO[A]PYRENE, 50-32-8, Dose [Inhibitor]: 10 MG IN 0.1 ML ACETONE 3/WK ADMINISTERED SIMULTANEOUSLY WITH CARCINOGEN FOR DU RATION OF STUDY (STUDY DURATION: 368 D), Route [Inhibitor]: DERMAL, Strain/Sex: ICR/FEMALE, Target Tissue: Type of Lesion: SKIN: SQUAMOUS CARCINOMA, Dose [Carcinogen]: 5 UG IN 0.1 ML ACETONE 3/WK FOR DURATION OF STUDY, Promoter: NONE USED
  tumour outcome (control, treated, inhibition, significance): 10/50 (20%), 2/50 (4%), 80%, not calculated

## Nc1ncn([C@H]2C[C@H](O)[C@@H](CO)O2)c(=O)n1
Carcinogen: 4-(METHYLNITROSAMINO)-1-(3-PYRIDIYL)-1-BUTANONE, 64091-91-4, Dose [Inhibitor]: 0, 1 MG/KG 3/WK FOR 12 WK THEN 0, 0.5 MG/KG FOR 12 WK BEGINNING 1 WK PRIOR TO CARCINOGEN TREATMENT (STUDY DURATION: 24 W, Dose [Inhibitor]: 0, 1 MG/KG 3/WK FOR 12 WK THEN 0, 0.5 MG/KG FOR 12 WK BEGINNING 1 WK PRIOR TO CARCINOGEN TREATMENT (STUDY DURATION: 24 W, Route [Inhibitor]: INTRAPERITONEAL, Strain/Sex: C3AF1/MALE, Target Tissue: Type of Lesion: LUNG: TUMOR, Dose [Carcinogen]: 3.9 MG/MOUSE (TOTAL DOSE) ADMINISTERED IN TWO WEEKLY DOSES OF 1.9 TO 2 MG, Promoter: NONE USED
  tumour outcome (control, treated, inhibition, significance): 100%, 77%, 23%, not significant

## Oc1ccc(/C=C/c2cc(O)cc(O)c2)cc1
Carcinogen: Diethylnitrosamine, 55-18-5, Dose [Inhibitor]: 0, 50, 100, 300 mg/kg bw for 20 wk, Dose [Inhibitor]: 0, 50, 100, 300 mg/kg bw for 20 wk, Route [Inhibitor]: Oral (diet), Species: Rat, Strain/Sex: Sprague-Dawley/Female, Target Tissue: Type of Lesion: Liver: nodules, Dose [Carcinogen]: 200 mg/kg bw once in peanut oil after 4 wk on diet, study duration 20 wk, Promoter: Phenobarbital, 50-06-6
  outcome: 100%; 78%; 50% (p<0.05); 40% (p<0.05)
